Assay results taken from patent publication US8952024B2, “Herbicidal pyrimidone derivatives” (E I du Pont de Nemours and Company, priority 2009, dated 2015).

Key:
Assay type in all cases: in vivo
[1] = system: barnyardgrass (Echinochloa crus-galli); assay: Test A pre-/postemergence plant response
Outline: (§1)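 Formulated test chemicals (non-phytotoxic solvent, surfactant) were sprayed onto soil right after planting and simultaneously onto young plants at one to two leaves, 2 to 10 cm tall. Plants stayed in the greenhouse about ten days; injury was then visually scored against untreated controls, from 0 (no effect) to 100 (complete control).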

corn (Zea mays) = assay: Test A pre-/postemergence plant response
Outline: as §1

[2] = system: giant foxtail (Setaria faberii); assay: Test A pre-/postemergence plant response
Outline: as §1

[3] = system: large crabgrass (Digitaria sanguinalis); assay: Test A pre-/postemergence plant response
Outline: as §1

[4] = system: morningglory (Ipomoea spp.); assay: Test A pre-/postemergence plant response
Outline: as §1

[5] = system: pigweed (Amaranthus retroflexus); assay: Test A pre-/postemergence plant response
Outline: as §1

[6] = system: velvetleaf (Abutilon theophrasti); assay: Test A pre-/postemergence plant response
Outline: as §1

[7] = system: wheat (Triticum aestivum); assay: Test A pre-/postemergence plant response
Outline: as §1

[8] = system: bermudagrass (Cynodon dactylon); assay: Test B pre-/postemergence plant response; conditions: for Bermudagrass plant response rating (0 to 100 scale): 0 is no effect
Outline: (§2)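 Seeds sown in loam–sand blend were treated preemergence, and plants at 2–18 cm (1- to 4-leaf stage) in peat-based medium were treated postemergence; compounds were formulated in non-phytotoxic solvent with surfactant. After 13–15 days in greenhouse, response was visually rated against controls, 0 (no effect) to 100 (complete control).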

[9] = system: cocklebur (Xanthium strumarium); assay: Test B pre-/postemergence plant response; conditions: for Cocklebur plant response rating (0 to 100 scale): 0 is no effect
Outline: as §2

[10] = system: wheat (Triticum aestivum); assay: Test B pre-/postemergence plant response; conditions: for Wheat plant response rating (0 to 100 scale): 0 is no effect
Outline: as §2

[11] = Postemergence, 125 g ai/ha, 0 to 100 scale where 0 is no effect and 100 is complete control
[12] = Postemergence, 500 g ai/ha, visual injury, 0 to 100 scale (0 no effect, 100 complete control), approx. ten days
[13] = Preemergence, 125 g ai/ha, 0 to 100 scale, 0 = no effect, 100 = complete control
[14] = Preemergence, 500 g ai/ha, 0 to 100 scale, 0 = no effect, 100 = complete control
[15] = 62 g ai/ha, postemergence, 100 is complete control, 13 to 15 days
[16] = Postemergence, 31 g ai/ha, 0 to 100 scale (0 no effect, 100 complete control)
[17] = Postemergence, 125 g ai/ha, scale 0 to 100 (0 no effect, 100 complete control)
[18] = Postemergence, 250 g ai/ha, scale 0 to 100 (0 no effect, 100 complete control), 13 to 15 days
[19] = Postemergence, 500 g ai/ha, 0 to 100 scale, 0 = no effect, 100 = complete control, approx. ten days
[20] = Preemergence, 500 g ai/ha, visual injury, 0 to 100 scale (0 no effect, 100 complete control), approx. ten days
[21] = 31 g ai/ha, postemergence, scale 0 to 100, 0 is no effect, 100 is complete control
[22] = Postemergence, 125 g ai/ha, visual rating after 13 to 15 days, scale 0 (no effect) to 100 (complete control)
[23] = Postemergence, 250 g ai/ha, scale 0 to 100 (0 no effect, 100 complete control)
[24] = Postemergence, 125 g ai/ha, visual injury, 0 to 100 scale (0 no effect, 100 complete control), approx. ten days
[25] = 250 g ai/ha, Preemergence, 0 to 100 scale
[26] = Preemergence, 31 g ai/ha, scale 0 to 100 (0 no effect, 100 complete control)
[27] = Preemergence, 62 g ai/ha, scale 0 to 100, 0 no effect, 100 complete control
[28] = Preemergence, 125 g ai/ha, scale 0 to 100, 0 no effect, 100 complete control

O=C1CCCC(O)=C1C(=O)c1cnc(-c2ccsc2)n(C2CCOCC2)c1=O [Compound 186]
Plant response rating, Barnyardgrass [1, 11]: 80
Barnyardgrass plant response rating [1, 12]: 90
Plant response rating, Barnyardgrass [1, 13]: 0
Plant response rating, Barnyardgrass [1, 14]: 60
Plant response rating, Corn (corn (Zea mays); [11]): 0
Corn plant response rating (corn (Zea mays); [12]): 60
Plant response rating, Corn (corn (Zea mays); [13]): 0
Plant response rating, Corn (corn (Zea mays); [14]): 0
Plant response rating, Foxtail, Giant [2, 11]: 80
Foxtail, Giant plant response rating [2, 12]: 90
Plant response rating, Foxtail, Giant [2, 13]: 20
Plant response rating, Foxtail, Giant [2, 14]: 60
Plant response rating, Crabgrass, Large [3, 11]: 90
Crabgrass, Large plant response rating [3, 12]: 90
Plant response rating, Crabgrass, Large [3, 13]: 30
Plant response rating, Crabgrass, Large [3, 14]: 80
Plant response rating, Morningglory [4, 11]: 100
Morningglory plant response rating [4, 12]: 100
Plant response rating, Morningglory [4, 13]: 20
Plant response rating, Morningglory [4, 14]: 90
Plant response rating, Pigweed [5, 11]: 100
Pigweed plant response rating [5, 12]: 100
Plant response rating, Pigweed [5, 13]: 50
Plant response rating, Pigweed [5, 14]: 100
Plant response rating, Velvetleaf [6, 11]: 100
Velvetleaf plant response rating [6, 12]: 100
Plant response rating, Velvetleaf [6, 13]: 60
Plant response rating, Velvetleaf [6, 14]: 100
Plant response rating, Wheat [7, 11]: 0
Wheat plant response rating [7, 12]: 0
Plant response rating, Wheat [7, 13]: 0
Plant response rating, Wheat [7, 14]: 0
Bermudagrass plant response rating (0 to 100 scale) [8, 15]: 80
Plant response rating, Bermudagrass [8, 16]: 80
Plant response rating, Bermudagrass [8, 17]: 95
Plant response rating, Bermudagrass [8, 18]: 98
Plant response rating, Cocklebur [9, 16]: 90
Plant response rating, Cocklebur [9, 17]: 100
Plant response rating, Cocklebur [9, 18]: 100
Plant response rating, Wheat [10, 16]: 0
Plant response rating, Wheat [10, 17]: 0
Plant response rating, Wheat [10, 18]: 5

CCCCCCn1c(-c2ccccc2)ncc(C(=O)C2=C(O)CCCC2=O)c1=O [Compound 94]
Plant response rating, Barnyardgrass [1, 11]: 90
Plant response rating, Barnyardgrass [1, 19]: 90
Plant response rating, Barnyardgrass [1, 13]: 0
Plant response rating, Barnyardgrass [1, 20]: 30
Plant response rating, Corn (corn (Zea mays); [11]): 0
Plant response rating, Corn (corn (Zea mays); [19]): 10
Plant response rating, Corn (corn (Zea mays); [13]): 0
Plant response rating, Corn (corn (Zea mays); [20]): 0
Plant response rating, Foxtail, Giant [2, 11]: 30
Plant response rating, Foxtail, Giant [2, 19]: 80
Plant response rating, Foxtail, Giant [2, 13]: 0
Plant response rating, Foxtail, Giant [2, 20]: 40
Plant response rating, Crabgrass, Large [3, 11]: 80
Plant response rating, Crabgrass, Large [3, 19]: 90
Plant response rating, Crabgrass, Large [3, 13]: 30
Plant response rating, Crabgrass, Large [3, 20]: 90
Plant response rating, Morningglory [4, 11]: 100
Plant response rating, Morningglory [4, 19]: 100
Plant response rating, Morningglory [4, 13]: 10
Plant response rating, Morningglory [4, 20]: 40
Plant response rating, Pigweed [5, 11]: 100
Plant response rating, Pigweed [5, 19]: 100
Plant response rating, Pigweed [5, 13]: 70
Plant response rating, Pigweed [5, 20]: 100
Plant response rating, Velvetleaf [6, 11]: 100
Plant response rating, Velvetleaf [6, 19]: 100
Plant response rating, Velvetleaf [6, 13]: 40
Plant response rating, Velvetleaf [6, 20]: 70
Plant response rating, Wheat [7, 11]: 0
Plant response rating, Wheat [7, 19]: 0
Plant response rating, Wheat [7, 13]: 0
Plant response rating, Wheat [7, 20]: 0
Plant response rating, Bermudagrass [8, 21]: 80
Bermudagrass plant response rating (0 to 100 scale) [8, 15]: 80
Plant response rating, Bermudagrass [8, 22]: 98
Plant response rating, Bermudagrass [8, 23]: 98
Plant response rating, Cocklebur [9, 21]: 45
Cocklebur plant response rating (0 to 100 scale) [9, 15]: 45
Plant response rating, Cocklebur [9, 22]: 60
Plant response rating, Cocklebur [9, 23]: 90
Plant response rating, Wheat [10, 21]: 0
Wheat plant response rating (0 to 100 scale) [10, 15]: 0
Plant response rating, Wheat [10, 23]: 5

CC(C)Cc1ncc(C(=O)C2=C(O)CCCC2=O)c(=O)n1-c1ccccc1 [Compound 68]
Barnyardgrass plant response rating [1, 24]: 80
Plant response rating, Barnyardgrass [1, 19]: 90
Plant response rating, Barnyardgrass [1, 13]: 0
Plant response rating, Barnyardgrass [1, 20]: 50
Corn plant response rating (corn (Zea mays); [24]): 0
Plant response rating, Corn (corn (Zea mays); [19]): 10
Plant response rating, Corn (corn (Zea mays); [13]): 0
Plant response rating, Corn (corn (Zea mays); [20]): 0
Foxtail, Giant plant response rating [2, 24]: 50
Plant response rating, Foxtail, Giant [2, 19]: 70
Plant response rating, Foxtail, Giant [2, 20]: 60
Crabgrass, Large plant response rating [3, 24]: 80
Plant response rating, Crabgrass, Large [3, 19]: 100
Plant response rating, Crabgrass, Large [3, 13]: 70
Plant response rating, Crabgrass, Large [3, 20]: 100
Morningglory plant response rating [4, 24]: 90
Plant response rating, Morningglory [4, 19]: 90
Plant response rating, Morningglory [4, 13]: 20
Plant response rating, Morningglory [4, 20]: 50
Pigweed plant response rating [5, 24]: 100
Plant response rating, Pigweed [5, 19]: 100
Plant response rating, Pigweed [5, 13]: 90
Plant response rating, Pigweed [5, 20]: 100
Velvetleaf plant response rating [6, 24]: 100
Plant response rating, Velvetleaf [6, 19]: 100
Plant response rating, Velvetleaf [6, 13]: 70
Plant response rating, Velvetleaf [6, 20]: 100
Wheat plant response rating [7, 24]: 0
Plant response rating, Wheat [7, 19]: 0
Plant response rating, Wheat [7, 13]: 0
Plant response rating, Wheat [7, 20]: 0
Plant response rating, Bermudagrass [8, 21]: 75
Bermudagrass plant response rating (0 to 100 scale) [8, 15]: 75
Plant response rating, Bermudagrass [8, 25]: 100
Plant response rating, Bermudagrass [8, 22]: 95
Plant response rating, Bermudagrass [8, 23]: 98
Plant response rating, Bermudagrass [8, 26]: 95
Plant response rating, Bermudagrass [8, 27]: 98
Plant response rating, Bermudagrass [8, 28]: 98
Plant response rating, Cocklebur [9, 21]: 25
Cocklebur plant response rating (0 to 100 scale) [9, 15]: 75
Plant response rating, Cocklebur [9, 25]: 80
Plant response rating, Cocklebur [9, 22]: 90
Plant response rating, Cocklebur [9, 23]: 90
Plant response rating, Cocklebur [9, 26]: 0
Plant response rating, Cocklebur [9, 27]: 10
Plant response rating, Wheat [10, 21]: 5
Wheat plant response rating (0 to 100 scale) [10, 15]: 5
Plant response rating, Wheat [10, 22]: 5
Plant response rating, Wheat [10, 23]: 10
Plant response rating, Wheat [10, 26]: 0
Plant response rating, Wheat [10, 27]: 0
Plant response rating, Wheat [10, 28]: 0

O=C1CCCC(O)=C1C(=O)c1cnc(-c2ccsc2)n(C2CCCCC2)c1=O [Compound 99]
Plant response rating, Barnyardgrass [1, 11]: 90
Plant response rating, Barnyardgrass [1, 19]: 90
Plant response rating, Barnyardgrass [1, 13]: 10
Plant response rating, Barnyardgrass [1, 20]: 90
Plant response rating, Corn (corn (Zea mays); [11]): 0
Plant response rating, Corn (corn (Zea mays); [19]): 20
Plant response rating, Corn (corn (Zea mays); [13]): 0
Plant response rating, Corn (corn (Zea mays); [20]): 0
Plant response rating, Foxtail, Giant [2, 11]: 80
Plant response rating, Foxtail, Giant [2, 19]: 90
Plant response rating, Foxtail, Giant [2, 13]: 40
Plant response rating, Foxtail, Giant [2, 20]: 80
Plant response rating, Crabgrass, Large [3, 11]: 90
Plant response rating, Crabgrass, Large [3, 19]: 100
Plant response rating, Crabgrass, Large [3, 13]: 60
Plant response rating, Crabgrass, Large [3, 20]: 100
Plant response rating, Morningglory [4, 11]: 100
Plant response rating, Morningglory [4, 19]: 100
Plant response rating, Morningglory [4, 20]: 80
Plant response rating, Pigweed [5, 11]: 100
Plant response rating, Pigweed [5, 19]: 100
Plant response rating, Pigweed [5, 13]: 90
Plant response rating, Pigweed [5, 20]: 100
Plant response rating, Velvetleaf [6, 11]: 100
Plant response rating, Velvetleaf [6, 19]: 100
Plant response rating, Velvetleaf [6, 13]: 80
Plant response rating, Velvetleaf [6, 20]: 100
Plant response rating, Wheat [7, 11]: 0
Plant response rating, Wheat [7, 19]: 0
Plant response rating, Wheat [7, 13]: 0
Plant response rating, Wheat [7, 20]: 0
Plant response rating, Bermudagrass [8, 21]: 75
Bermudagrass plant response rating (0 to 100 scale) [8, 15]: 75
Plant response rating, Bermudagrass [8, 17]: 80
Plant response rating, Bermudagrass [8, 23]: 98
Plant response rating, Cocklebur [9, 21]: 95
Cocklebur plant response rating (0 to 100 scale) [9, 15]: 100
Plant response rating, Cocklebur [9, 17]: 100
Plant response rating, Cocklebur [9, 23]: 100
Wheat plant response rating (0 to 100 scale) [10, 15]: 5
Plant response rating, Wheat [10, 17]: 5
Plant response rating, Wheat [10, 23]: 5
